Results reported in ChEMBL document CHEMBL1201862, “PubChem BioAssay data set” (2004).
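Interpolation was linear, between the two tested concentrations surrounding the appropriate level; five concentrations were tested over 48 hours in 96-well plates. The concentration for 50% growth inhibition is given as GI50.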 The source made the active and inactive calls. Cut-off read from the data, not from the text of the source: active = GI50 up to about 1.1 µM and inactive = higher.

What was measured:
Assay in all cases: NCI-60 cell line screen, 48 h
[1] = tested on: Hs-578T
[2] = tested on: COLO 205
[3] = tested on: SF-539
[4] = tested on: HT-29
[5] = tested on: HCT-116
[6] = tested on: NCI/ADR-RES
[7] = tested on: HOP-92
[8] = tested on: HCT-15
[9] = tested on: SR
[10] = tested on: A498
[11] = tested on: T47D
[12] = tested on: MDA-MB-435
[13] = tested on: NCI-H460
[14] = tested on: RPMI-8226
[15] = tested on: SNB-75
[16] = tested on: UO-31
[17] = tested on: NCI-H23
[18] = tested on: SF-295
[19] = tested on: SK-MEL-2
[20] = tested on: LOX IMVI
[21] = tested on: KM12
[22] = tested on: OVCAR-3
[23] = tested on: PC-3
[24] = tested on: 786-0
[25] = tested on: Malme-3M
[26] = tested on: CAKI-1
[27] = tested on: OVCAR-4
[28] = tested on: M14
[29] = tested on: HCC 2998
[30] = tested on: IGROV-1
[31] = tested on: EKVX
[32] = tested on: NCI-H226
[33] = tested on: SW-620
[34] = tested on: ACHN
[35] = tested on: CCRF-CEM
[36] = tested on: HOP-62
[37] = tested on: MOLT-4
[38] = tested on: UACC-257
[39] = tested on: HL-60
[40] = tested on: MCF7
[41] = tested on: SK-OV-3
[42] = tested on: SK-MEL-28
[43] = tested on: OVCAR-8
[44] = tested on: SF-268
[45] = tested on: DU-145
[46] = tested on: TK-10
[47] = tested on: BT-549
[48] = tested on: SN12C
[49] = tested on: OVCAR-5
[50] = tested on: K562
[51] = tested on: A549
[52] = tested on: SNB-19
[53] = tested on: NCI-H522
[54] = tested on: MDA-MB-231
[55] = tested on: U-251
[56] = tested on: SK-MEL-5
[57] = tested on: UACC-62
[58] = tested on: RXF 393

Measured: GI50

COc1ccc(C[C@@H]2CN(C(=O)c3ccccc3)[C@H](Cc3ccc(O)cc3)CN2C(=O)c2ccccc2)cc1Br
> 100 µM: [8]
inactive: [1] > 100 µM | [2] > 100 µM | [3] > 100 µM | [4] > 100 µM | [5] > 100 µM | [6] > 100 µM | [7] > 100 µM | [9] 88.3 µM | [10] > 100 µM | [11] > 100 µM | [12] > 100 µM | [13] > 100 µM | [14] 82.8 µM | [15] > 100 µM | [16] > 100 µM | [17] > 100 µM | [18] > 100 µM | [19] > 100 µM | [20] > 100 µM | [21] > 100 µM | [22] > 100 µM | [23] 55.2 µM | [24] > 100 µM | [25] > 100 µM | [26] > 100 µM | [27] > 100 µM | [28] > 100 µM | [29] > 100 µM | [30] > 100 µM | [31] > 100 µM | [32] > 100 µM | [33] > 100 µM | [34] > 100 µM | [35] > 100 µM | [36] > 100 µM | [37] > 100 µM | [38] > 100 µM | [39] > 100 µM | [40] > 100 µM | [41] > 100 µM | [42] > 100 µM | [43] > 100 µM | [44] > 100 µM | [45] > 100 µM | [46] > 100 µM | [47] > 100 µM | [48] > 100 µM | [49] > 100 µM | [50] > 100 µM | [51] > 100 µM | [52] > 100 µM

O=C(CC(=O)N1N=C(N(c2ccccc2)c2ccccc2)CC1c1ccccc1)Nc1cccc(Cl)c1 (stereo not given)
> 100 µM: [8]
inactive: [1] > 100 µM | [2] > 100 µM | [3] > 100 µM | [4] > 100 µM | [5] > 100 µM | [6] > 100 µM | [7] > 100 µM | [9] > 100 µM | [11] > 100 µM | [12] > 100 µM | [13] > 100 µM | [14] > 100 µM | [15] > 100 µM | [16] > 100 µM | [17] > 100 µM | [18] > 100 µM | [19] > 100 µM | [53] > 100 µM | [21] > 100 µM | [22] > 100 µM | [23] > 100 µM | [24] > 100 µM | [26] > 100 µM | [27] > 100 µM | [54] > 100 µM | [28] > 100 µM | [29] > 100 µM | [30] > 100 µM | [31] > 100 µM | [32] > 100 µM | [33] > 100 µM | [34] > 100 µM | [55] > 100 µM | [56] > 100 µM | [35] > 100 µM | [36] > 100 µM | [37] > 100 µM | [38] > 100 µM | [39] > 100 µM | [40] > 100 µM | [57] > 100 µM | [41] > 100 µM | [42] > 100 µM | [43] > 100 µM | [44] > 100 µM | [58] > 100 µM | [45] > 100 µM | [46] > 100 µM | [47] > 100 µM | [48] > 100 µM | [49] > 100 µM | [50] > 100 µM | [51] > 100 µM | [52] > 100 µM

Cc1ccc(/N=N/c2c(O)c(C(=O)O)cc3ccccc23)cc1C
> 100 µM: [8]
inactive: [1] 42.3 µM | [2] > 100 µM | [3] > 100 µM | [4] > 100 µM | [5] > 100 µM | [6] > 100 µM | [7] > 100 µM | [9] > 100 µM | [12] > 100 µM | [13] > 100 µM | [14] > 100 µM | [15] > 100 µM | [16] > 100 µM | [17] > 100 µM | [18] > 100 µM | [19] > 100 µM | [53] > 100 µM | [21] > 100 µM | [22] > 100 µM | [23] > 100 µM | [24] > 100 µM | [25] > 100 µM | [26] > 100 µM | [27] > 100 µM | [54] > 100 µM | [28] > 100 µM | [29] > 100 µM | [30] > 100 µM | [31] > 100 µM | [32] > 100 µM | [33] > 100 µM | [34] > 100 µM | [55] 80.7 µM | [56] > 100 µM | [35] > 100 µM | [36] 62.5 µM | [37] > 100 µM | [38] > 100 µM | [39] 46.3 µM | [40] > 100 µM | [57] > 100 µM | [41] > 100 µM | [42] > 100 µM | [43] > 100 µM | [44] > 100 µM | [58] > 100 µM | [46] > 100 µM | [47] > 100 µM | [49] > 100 µM | [50] 82.6 µM | [51] > 100 µM | [52] 46.1 µM
